Tested on: micellar dispersion consisting of 5 mM taurocholate, 0.6 mM oleic acid and 0.1 mM radiolabeled cholesterol
Experiment: In vitro precipitation of cholesterol-carrying bile salt micelles (radioactivity in supernatant after centrifugation; turbidity at 500 nm)
Details: for precipitation: at the amount calculated for charge equivalence
Procedure: In order to determine the efficiency of specific cations, an in vitro test was used in which micelles comprising radio labeled cholesterol (cholesterol and micelles were produced according to known methods, see below) were generated. To a predetermined amount of such micelles, the respective precipitant was added in portions, and the precipitation formed upon addition of specific amounts of precipitant measured by two methods, namely by light scattering and by determination of the radioactivity in the supernatant after centrifugation.
A micellar dispersion consisting of 5 mM taurocholate, 0.6 mM oleic acid and 0.1 mM radiolabeled cholesterol was prepared as described before (Schulthess et al., J. Lipid Res. 37, 2405-19 (1996)) using Mg- and Ca-free phosphate-buffered saline (PBS) from Life Technologies, Basel, Switzerland. This stock solution was diluted by adding various amounts of precipitant in PBS, and PBS was added to a final volume of 1 ml. The mixture was shortly vortexed and incubated at room temperature for about 5 min before measuring its optical density (turbidity) at 500 nm. Precipitation (in %) was determined as follows: an aliquot of 200 µl of the incubation mixture was centrifuged for 3 min. at 100'000 g and the radioactivity of 100 µl supernatant was determined in a liquid scintillation counter. The radioactivity of 100 µl of the original mixture was also determined without centrifugation. The precipitation was determined as precipitation (%) = 100 [1-([…])] [formula] • A = radioactivity in supernatant without centrifugation • B = radioactivity in supernatant after centrifugation As a control: the precipitation (%) is determined in the absence of precipitant and a value of precipitation (%) = 2 ± 1 is obtained.

[1] = charge ratio (taurocholate/precipitant) 0.3, in 10 mM Arg and 10 mM Lys
[2] = charge ratio (taurocholate/precipitant) 0.3 ± 0.1, PBS
[3] = charge ratio (taurocholate/precipitant) 0.6, in 10 mM Arg and 10 mM Lys
[4] = charge ratio (taurocholate/precipitant) 1.2 ± 0.5, PBS
[5] = charge ratio (taurocholate/precipitant) 0.25, PBS
[6] = charge ratio (taurocholate/precipitant) 1, PBS
[7] = charge ratio (taurocholate/precipitant) 0.2, in PBS
[8] = charge ratio (taurocholate/precipitant) 5, in PBS
[9] = charge ratio (taurocholate/precipitant) 1.4 ± 0.6, PBS
[10] = charge ratio (taurocholate/precipitant) 0.1, PBS
[11] = charge ratio (taurocholate/precipitant) 0.165, PBS
[12] = charge ratio (taurocholate/precipitant) 0.5, PBS
[13] = charge ratio (taurocholate/precipitant) 3, PBS
[14] = charge ratio (taurocholate/precipitant) 2, PBS
[15] = charge ratio (taurocholate/precipitant) 1, in 50 mM Tris-HCl, pH=7.4
[16] = charge ratio (taurocholate/precipitant) 2, in 50 mM Tris-HCl, pH=7.4

With Polylysine [Polylysine Mr = 21600] the precipitation (Figure 2, equivalence point: poly K = 0.0061 mM) was 100%, the “Precipitation (%)” value [1] was 100% and the “Turbidity (OD 500 nm)” value [1] was 1.6 ± 0.2 OD 500 nm. The “Precipitation (%)” value [2] was 100%, the “Turbidity (OD 500 nm)” value [2] was 0.4 ± 0.03 OD 500 nm and the “Precipitation (%)” value [3] was 100%. For the same compound, the “Turbidity (OD 500 nm)” value [3] was 1.3 ± 0.1 OD 500 nm, the “Precipitation (%)” value [4] was 100% and the “Turbidity (OD 500 nm)” value [4] was 0.13 ± 0.05 OD 500 nm.

With N=C(N)NCCC[C@H](N)C(=O)O [Arginine] the “Precipitation (%)” value [5] was 0%, the “Turbidity (OD 500 nm)” value [5] was 0 OD 500 nm and the “Precipitation (%)” value [6] was 0%. The “Turbidity (OD 500 nm)” value [6] was 0 OD 500 nm.

For Mg^2+, the “Precipitation (%)” value [7] was 0%, the “Turbidity (OD 500 nm)” value [7] was 0 OD 500 nm and the “Precipitation (%)” value [8] was 0%. The “Turbidity (OD 500 nm)” value [8] was 0 OD 500 nm.

Polylysine [Polylysine Mr = 2300] was tested, and the precipitation (Figure 3, equivalence point: poly K = 0.056 mM) was 100%, the “Precipitation (%)” value (charge ratio (taurocholate/precipitant) 0.5 ± 0.1, PBS) was 100% and the “Turbidity (OD 500 nm)” value (charge ratio (taurocholate/precipitant) 0.5 ± 0.1, PBS, maximal turbidity observed) was 0.9 ± 0.1 (max) OD 500 nm. The “Precipitation (%)” value [9] was 100% and the “Turbidity (OD 500 nm)” value [9] was 0.6 ± 0.2 OD 500 nm.

NCCCCCCN [1,6 Hexanediamine] was tested, and the “Precipitation (%)” value [10] was 0%, the “Turbidity (OD 500 nm)” value [10] was 0 OD 500 nm and the “Precipitation (%)” value [11] was 0%. For the same compound, the “Turbidity (OD 500 nm)” value [11] was 0 OD 500 nm.

With NCCCCCCCCCCN [1,10 Diaminodecane] the “Precipitation (%)” value [12] was 0%, the “Turbidity (OD 500 nm)” value [12] was 0 OD 500 nm and the “Precipitation (%)” value [6] was 0%. The “Turbidity (OD 500 nm)” value [6] was 0 OD 500 nm, the “Precipitation (%)” value [13] was 0% and the “Turbidity (OD 500 nm)” value [13] was 0 OD 500 nm.

With NCCCCCCCCCCCCN [1,12 Diaminododecane] the “Precipitation (%)” value (charge ratio (taurocholate/precipitant) 0.125, PBS) was 100%, the “Turbidity (OD 500 nm)” value (charge ratio (taurocholate/precipitant) 0.125, PBS, maximal turbidity observed) was 0.4 ± 0.05 (max) OD 500 nm and the “Precipitation (%)” value [12] was 65 ± 5%. The “Turbidity (OD 500 nm)” value [12] was 0.02 ± 0.01 OD 500 nm, the “Precipitation (%)” value [6] was 17 ± 4% and the “Turbidity (OD 500 nm)” value [6] was 0.01 ± 0.005 OD 500 nm. The “Precipitation (%)” value [14] was 13 ± 4% and the “Turbidity (OD 500 nm)” value [14] was 0.01 ± 0.005 OD 500 nm.

With Ca^2+ the “Precipitation (%)” value (charge ratio (taurocholate/precipitant) 0.2, in 50 mM Tris-HCl, pH=7.4) was 0%, the “Turbidity (OD 500 nm)” value (charge ratio (taurocholate/precipitant) 0.2, in 50 mM Tris-HCl, pH=7.4, maximal turbidity observed) was 0.23 ± 0.06 (max) OD 500 nm and the “Precipitation (%)” value [7] was 100%. The “Turbidity (OD 500 nm)” value (charge ratio (taurocholate/precipitant) 0.2, in PBS, maximal turbidity observed) was 0.25 ± 0.05 (max) OD 500 nm, the “Precipitation (%)” value [15] was 0% and the “Turbidity (OD 500 nm)” value [15] was 0.12 ± 0.03 OD 500 nm. The “Precipitation (%)” value [16] was 0% and the “Turbidity (OD 500 nm)” value [16] was 0.13 ± 0.03 OD 500 nm.

NCCCC[C@H](N)C(=O)O [Lysine] was tested, and the “Precipitation (%)” value [5] was 0%, the “Turbidity (OD 500 nm)” value [5] was 0 OD 500 nm and the “Precipitation (%)” value [6] was 0%. For the same compound, the “Turbidity (OD 500 nm)” value [6] was 0 OD 500 nm.

From patent publication EP1090634A1, “Agents for reducing cholesterol and lipid uptake” (Hauser, Helmut, priority 1999, dated 2001)
